Source: PubChem BioAssay (NCI)
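The concentration for 50% growth inhibition is given as GI50. At the TGI there is no net growth.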

Legend:
Assay in all cases: NCI tumour cell line growth inhibition, 384-well format
UACC-257 melanoma = system: UACC-257 melanoma
MDA-MB-231 breast = system: MDA-MB-231 breast
SK-MEL-5 melanoma = system: SK-MEL-5 melanoma
NCI-H522 lung = system: NCI-H522 lung
OVCAR-8 ovarian = system: OVCAR-8 ovarian
EKVX NSCLC = system: EKVX NSCLC
BT-549 breast = system: BT-549 breast
SNB-19 CNS = system: SNB-19 CNS
NCI-H322M lung = system: NCI-H322M lung
UACC-62 melanoma = system: UACC-62 melanoma
SN12C renal = system: SN12C renal
HS 578T breast = system: HS 578T breast
SR leukemia = system: SR leukemia
HL-60(TB) leukemia = system: HL-60(TB) leukemia
T-47D breast = system: T-47D breast
NCI-H226 lung = system: NCI-H226 lung
OVCAR-4 ovarian = system: OVCAR-4 ovarian
HCT-116 colon = system: HCT-116 colon
SF-539 CNS = system: SF-539 CNS
CAKI-1 renal = system: CAKI-1 renal
MALME-3M melanoma = system: MALME-3M melanoma
RXF 393 renal = system: RXF 393 renal
PC-3 prostate = system: PC-3 prostate
NCI/ADR-RES ovarian = system: NCI/ADR-RES ovarian
LOX IMVI melanoma = system: LOX IMVI melanoma
HCT-15 colon = system: HCT-15 colon
NCI-H460 NSCLC = system: NCI-H460 NSCLC
ACHN renal = system: ACHN renal
COLO 205 colon = system: COLO 205 colon
SK-OV-3 ovarian = system: SK-OV-3 ovarian
SF-295 CNS = system: SF-295 CNS
DU-145 prostate = system: DU-145 prostate
A498 renal = system: A498 renal
U251 glioblastoma = system: U251 glioblastoma
MOLT-4 leukemia = system: MOLT-4 leukemia
SNB-75 CNS = system: SNB-75 CNS
HCC-2998 colon = system: HCC-2998 colon
M14 melanoma = system: M14 melanoma
SK-MEL-28 melanoma = system: SK-MEL-28 melanoma
SF-268 CNS = system: SF-268 CNS
TK-10 renal = system: TK-10 renal
HT29 colon = system: HT29 colon
A549 NSCLC = system: A549 NSCLC
IGROV1 ovarian = system: IGROV1 ovarian
NCI-H23 lung = system: NCI-H23 lung
HOP-62 NSCLC = system: HOP-62 NSCLC
OVCAR-3 ovarian = system: OVCAR-3 ovarian
MDA-MB-468 breast = system: MDA-MB-468 breast
HOP-92 NSCLC = system: HOP-92 NSCLC
MCF7 breast = system: MCF7 breast
MDA-MB-435 melanoma = system: MDA-MB-435 melanoma
RPMI-8226 leukemia = system: RPMI-8226 leukemia
OVCAR-5 ovarian = system: OVCAR-5 ovarian
KM12 colon = system: KM12 colon

## Clc1ccc(N2CCC(N3CCCC3)CC2)cc1-c1nc2ccccc2[nH]1
UACC-257 melanoma
  GI50: 2 µM
  TGI: 4.78 µM
MDA-MB-231 breast
  GI50: 17 µM
  TGI: 31.2 µM
SK-MEL-5 melanoma
  GI50: 4.01 µM
  TGI: 16 µM
NCI-H522 lung
  GI50: 17.7 µM
  TGI: 31.6 µM
OVCAR-8 ovarian
  GI50: 16.7 µM
  TGI: 31.1 µM
EKVX NSCLC
  GI50: 14.2 µM
  TGI: 28.1 µM
BT-549 breast
  GI50: 8.67 µM
  TGI: 20.9 µM
SNB-19 CNS
  GI50: 18.2 µM
  TGI: 37 µM
NCI-H322M lung
  GI50: 14.3 µM
  TGI: 32 µM
UACC-62 melanoma
  GI50: 13.5 µM
  TGI: 26.6 µM
SN12C renal
  GI50: 11.8 µM
  TGI: 24.5 µM
HS 578T breast
  GI50: 14.8 µM
  TGI: 28.1 µM
SR leukemia
  GI50: 11.8 µM
  TGI: 24.2 µM
HL-60(TB) leukemia
  GI50: 12.3 µM
  TGI: 25 µM
T-47D breast
  GI50: 13.9 µM
  TGI: 27.4 µM
NCI-H226 lung
  GI50: 15.2 µM
  TGI: 28.6 µM
OVCAR-4 ovarian
  GI50: 11.9 µM
  TGI: 25.9 µM
HCT-116 colon
  GI50: 11.7 µM
  TGI: 24.7 µM
SF-539 CNS
  GI50: 16.9 µM
  TGI: 30.9 µM
CAKI-1 renal
  GI50: 16.9 µM
  TGI: 33.4 µM
MALME-3M melanoma
  GI50: 13 µM
  TGI: 25.8 µM
RXF 393 renal
  GI50: 15.1 µM
  TGI: 28.6 µM
PC-3 prostate
  GI50: 15.1 µM
  TGI: 30.5 µM
NCI/ADR-RES ovarian
  GI50: 15.4 µM
  TGI: 32.5 µM
LOX IMVI melanoma
  GI50: 16.5 µM
  TGI: 30.2 µM
HCT-15 colon
  GI50: 3.84 µM
  TGI: 14.1 µM
NCI-H460 NSCLC
  GI50: 17.2 µM
  TGI: 31.4 µM
ACHN renal
  GI50: 16.6 µM
  TGI: 30.8 µM
COLO 205 colon
  GI50: 14.3 µM
  TGI: 27.6 µM
SK-OV-3 ovarian
  GI50: 14.1 µM
  TGI: 27.5 µM
SF-295 CNS
  GI50: 17.8 µM
  TGI: 31.8 µM
DU-145 prostate
  GI50: 15.3 µM
  TGI: 32.5 µM
A498 renal
  GI50: 14.4 µM
  TGI: 27.6 µM
U251 glioblastoma
  GI50: 16.9 µM
  TGI: 30.7 µM
MOLT-4 leukemia
  GI50: 16.5 µM
  TGI: 30.3 µM
SNB-75 CNS
  GI50: 16.9 µM
  TGI: 31 µM
HCC-2998 colon
  GI50: 12.5 µM
  TGI: 25.3 µM
M14 melanoma
  GI50: 18 µM
  TGI: 32 µM
SK-MEL-28 melanoma
  GI50: 14.9 µM
  TGI: 28.3 µM
SF-268 CNS
  GI50: 16.3 µM
  TGI: 30.1 µM
TK-10 renal
  GI50: 12.4 µM
  TGI: 25 µM
HT29 colon
  GI50: 10.9 µM
  TGI: 23.6 µM
A549 NSCLC
  GI50: 17.2 µM
  TGI: 32.3 µM
IGROV1 ovarian
  GI50: 15.5 µM
  TGI: 29.5 µM
NCI-H23 lung
  GI50: 14.1 µM
  TGI: 27.7 µM
HOP-62 NSCLC
  GI50: 16.1 µM
  TGI: 29.8 µM
OVCAR-3 ovarian
  GI50: 14.6 µM
  TGI: 28 µM
MDA-MB-468 breast
  GI50: 14.1 µM
  TGI: 27.3 µM
HOP-92 NSCLC
  GI50: 18.4 µM
  TGI: 32.8 µM
MCF7 breast
  GI50: 12.1 µM
  TGI: 25.4 µM
MDA-MB-435 melanoma
  GI50: 17.1 µM
  TGI: 30.9 µM
RPMI-8226 leukemia
  GI50: 16.1 µM
  TGI: 29.7 µM
OVCAR-5 ovarian
  GI50: 15.8 µM
  TGI: 30.1 µM
KM12 colon
  GI50: 14.8 µM
  TGI: 29.1 µM
